The subject of test [1] is replay rivalry criterion and response latency. Briefly: Rivalry replay control (criterion for mixed percept and response latency). It is filed as in vivo, human. The note with it: donepezil 5 mg oral vs placebo; F(1,22)=1.4. From the text:
To ensure any treatment effects were the result of changes in visual neural activity as opposed to changes in motor or executive function, a rivalry replay control experiment was implemented where participants watched computer-generated videos of simulated binocular rivalry, presented identically to both eyes. […] See FIG. 2 for additional details regarding the plots.
Rivalry replay control. A rivalry replay control condition was used to characterize the criterion for categorizing a percept as mixed and to quantify the latency of binocular rivalry responses (Robertson et al., 2013, 2016). The replay control consisted of computer-generated videos presented binocularly, where the stimulus was oscillated from left-oriented gratings to right-oriented gratings along a continuous scale, such that the midpoint of this oscillation would produce a complete mixture of the two gratings. […]
In addition, the overall rate of rivalry, defined as the total number of switches between the exclusive percepts divided by the run duration (Robertson et al., 2013, 2016) was extracted. In order to quantify the magnitude of the effect of the two treatment conditions relative to baseline, mean posttreatment values were divided by the mean baseline values to obtain post/pre ratios for each dependent variable across both experimental conditions. […]

The test system of test [2] is binocular rivalry dynamics. The test can be described thus: Binocular rivalry task, double-blind placebo-controlled crossover, before and 3 h after donepezil or placebo. Format: in vivo, human. From the text: The binocular rivalry task consisted of a dichoptic stimulus where participants viewed a left-tilted grating in one eye and a right-tilted grating in the other for 90 s, continuously indicating via key-press whether they were seeing (1) the left eye's image, (2) the right eye's image, (3) a piecemeal mixture of the two images, or (4) a superimposed mixture of the two images (FIG. 1). This task was used to better characterize the mixed percepts while also encouraging participants not to miscategorize a mixed percept as exclusive.
Binocular rivalry task. A previously developed (Skerswetat et al., 2018) binocular rivalry task was adapted to quantify the fractions and median durations of exclusive, piecemeal, superimposition, and overall mixed percepts (for illustrations, see FIG. 1B). At the beginning of each session, participants were shown images on a document that illustrated the differences between the left-oriented, right-oriented, and superimposition versus piecemeal mixed percepts. Participants were told that they would see a dynamic stimulus during the experiment and that their task was to track what they were seeing, with particular attention to timeliness and accuracy.
Participants were given the option to continuously indicate whether they were seeing either (1) an exclusively left-tilted grating, (2) an exclusively right-tilted grating, (3) a superimposition mixed percept, or (4) a piecemeal mixed percept. Participants used three adjacent keys for the task, using the left to indicate exclusive left-tilt, right for right-tilt, a holding down a combination of the left and right keys for the piecemeal percepts, and the middle key for the superimposition percepts. It was specified that the criterion for exclusive percepts should be ˜90% left or right oriented.
Experimental design and statistical analysis. […] Group assignment was counterbalanced across participants to control for possible session-order effects. The experimenter was not aware of the treatment condition of the two group assignments until after data collection was complete. For safety purposes, the experimenter recorded the participant's systolic blood pressure at baseline and monitored blood pressure levels throughout the experiment.
The general protocol of each experimental block is outlined in FIG. 1A. Each block consisted of two binocular rivalry runs followed by two rivalry replay runs, each lasting 90 s.
Each run (rivalry and replay) began with a dichoptic nonius cross presented inside a 3° oval surrounded by a black-and-white noise (1 cycle/degree) frame (side=10°). The observer was asked to make keypresses to adjust the position of the two frames to calibrate the optimal position for comfortable fusion. After confirmation, the participant was instructed to fixate at a fixation dot (0.2°) and place their hands on the appropriate keys to begin responding to the rivalry task. After a keypress, the dichoptic stimulus appeared and participants began responding to what they were observing on the monitor using the keypress instructions provided at the beginning of each session. Subsequent runs were initiated after a brief break where subjects viewed a mean-gray background screen. […] During the incubation period, subjects were instructed to keep both eyes open and do normal activities such as watching a movie or doing computer work in a well-lit room.
Baseline and posttreatment measurements were drawn from four experimental blocks. A mandatory 2-min break was implemented between each experimental block to prevent fatigue.

In the next test the test system is visual function. The note with it: cited from earlier work.

Entries after “also recorded” stand apart in the source; their conditions may differ.

Take `COc1cc2c(cc1OC)C(=O)C(CC1CCN(Cc3ccccc3)CC1)C2` (stereo not drawn) [donepezil]: the “effect on criterion and response latency in rivalry replay control (MANOVA)” value in test [1] is listed as “no observable differences; also recorded: not significant”. In addition, the “overall effect on binocular rivalry dynamics (repeated measures MANOVA of post/pre values)” value in test [2] (donepezil 5 mg oral vs placebo, F(1,22)=2.68, p=0.04) was “significantly altered binocular rivalry dynamics”. In test [2] (donepezil 5 mg oral, 3 h, 23 participants), the “participants with increases in the fraction of mixed visibility” value is 19 out of 23. Moreover, the “individuals exhibiting donepezil-induced increases of 0.50% in fraction of mixed visibility” value in test [2] (donepezil 5 mg oral, 3 h, of the 19 participants with increases) is “eight”. In addition, in test [2] (po, 5 mg, 3 h), the “decrease of rate of binocular rivalry” value was found to be 36%, the “enhancement of fraction of aggregate mixed visibility during rivalry” value was 43%, the “enhancement of fraction visibility of superimposition percepts” value was determined as 70% and the “increase of median duration of mixed visibility” value came to 20%. In test [2] (po, 5 mg, 3 h), the “increase of median duration of piecemeal percepts” value stood at 49%, the “increase of median duration of superimposition percepts” value is reported as 54%, the “reduction of fraction of exclusive percepts” value is given as 59% and the “reduction of fraction of piecemeal percepts” value came out at 15%. In addition, the “reduction of median duration of exclusive percepts” value in test [2] (po, 5 mg, 3 h) stood at 78%. In addition, the “effect on monocular visual function using perceptual learning” value with visual function (Chung et al., 2017) is reported as “not useful to improve monocular visual function”. The “effect on perceptual eye dominance changes from short term patching of one eye” value with visual function (Sheynin et al., 2019) is “impede perceptual eye dominance changes”.
